The record followed here is patent publication US20070161645A1, “Thiazole inhibitors targeting resistant kinase mutations” (TargeGen, Inc., priority 2005, published 2007).

pIC50: −log10 of the molar value. Counter-ions that a name gives are not always drawn. Like-named read-outs stand apart in the source and are kept apart here.

In one test the target is T1, Abl (T315I) (Homo sapiens, UniProt P00519, T315I).
T1 construct: purchased Upstate
Nature of the test: Abl (T315I) Kinase Assay (KinaseGlo luminescent detection of residual ATP). In kind it is biochemical. The procedure: The assay was performed similarly to the Abl kinase assay. Abl (T3151) (Upstate, 17 ng/well); Abltide substrate (100 μM) and ATP (5 nM) comprised the reaction mixture. Compound was similarly diluted, and the reaction plate was incubated for 60 minutes at 37° C. IC50's were calculated as for the Abl kinase assay using GraphPad Prism4.
For orientation: In Kinase-Glo more light means more ATP remaining.

The next test concerns the target T2, Abl kinase (Homo sapiens, UniProt P00519).
T2 construct: purchased Invitrogen
Put plainly: Abl Kinase Assay (KinaseGlo luminescent detection of residual ATP). Format: biochemical.

Setting [1] is: Abl kinase 20 ng/well, Abltide 100 μM, ATP 500 nM, 60 minutes at 37° C., read-out: Abl IC50.
Where [2] appears, read: Abl (T315I) 17 ng/well, Abltide 100 μM, ATP 5 nM, 60 minutes at 37° C., read-out: Abl (T315I) IC50.

Experimental for Abl kinase: Kinase activity was assessed using luminescent detection (KinaseGlo, Promega) of residual ATP concentration in reaction mixtures containing optimized levels of kinase, substrate, ATP, compound and appropriate buffers. Kinase, substrate and ATP concentrations were determined per the supplier's recommendations. Briefly, this involved running concentration curves to select for optimal signal.
The reaction mixture (50 μl/well) consisted of Abl kinase (Invitrogen, 20 ng/well); Abltide peptide substrate (Upstate, 100 μM) and ATP (500 nM). Each compound was evaluated at a top concentration of 10 μM with 1:3 dilution steps, 10 dilution steps total. Compound was diluted into DMSO and transferred to the reaction plate, resulting in a final DMSO concentration of 2%. This amount of DMSO was determined not to interfere with the enzyme. The reaction was conducted at 37° C. for 60 minutes. The degree of inhibition was assessed using IC50 determinations, which were obtained using GraphPad Prism4.

As to `O=S(=O)(c1cccc(Nc2ncc(/C=C/c3cccc(O)c3)s2)c1)N1CCNCC1` [Compound VI, 3-(-{2-[3-(Piperazine-1-sulfonyl)-phenylamino]-thiazol-5yl}-vinyl)-phenol], the pIC50 (usually the negative decadic logarithm of the IC50, by convention in mol/L) was 5.58 against Abl (T315I) and 6.89 on Abl kinase.
With `O=S(=O)(NCCN1CCCC1)c1ccc(Nc2ncc(C=Cc3cc(O)ccc3Cl)s2)cc1` [Compound IV, 4-{5-[2-(2-Chloro-5-hydroxy-phenyl)-vinyl]-thiazol-2-ylamino}-N-(2-pyrrolidin-1-yl-ethyl)-benzenesulfonamide], at Abl kinase (setting [1]), the pIC50 was 6.05.
Turning to `Cc1nc(Nc2ncc(/C=C/c3cccc(O)c3)s2)cc(N2CCNCC2)n1` [Compound XX, (E)-3-(2-(2-(2-Methyl-6-(piperazin-1-yl)pyrimidin-4-ylamino)thiazol-5-yl)vinyl)phenol hydrochloride], the values for the pIC50 at Abl (T315I) and against Abl kinase were 7.74 and 8.82, respectively.
With `Oc1cccc(/C=C/c2cnc(Nc3ccc(N4CCNCC4)cc3)s2)c1` [Compound IX, 3-((E)-2-(2-(4-(Piperazin-1-yl)phenylamino)thiazol-5-yl)vinyl)phenol], the results for the pIC50 on Abl (T315I) and against Abl kinase were 6.81 and 7.82, respectively.
Regarding `Cc1nc(Nc2ncc(/C=C/c3ccc(O)cc3)s2)cc(N2CCN(CCO)CC2)n1` [Compound III, 4-[2-(2-{6-[4-(2-Hydroxy-ethyl)-piperazin-1-yl]-2-methyl-pyrimidin-4-yl-amino}-thiazol-5-yl)-vinyl]-phenol], the pIC50 was 7.18 on Abl (T315I) (setting [2]) and 7.59 at Abl kinase (setting [1]).
In the same order, the values of `Cc1nc(Nc2ncc(/C=C/c3cccc4[nH]ncc34)s2)cc(N2CCNCC2)n1` [Compound XVI, {5-[2-(1H-Indazol-4-yl)-vinyl]-thiazol-2-yl}-(2-methyl-6-piperazin-1-yl-pyrimidin-4-yl)-amine] are 6.48 and 7.70.
`Oc1cccc(/C=C/c2cnc(Nc3cccc(N4CCNCC4)c3)s2)c1` [Compound X, 3-((E)-2-(2-(3-(Piperazin-1-yl)phenylamino)thiazol-5-yl)vinyl)phenol]: the negative logarithm of the IC50 (pIC50) against Abl (T315I) is 6.42; against Abl kinase, 7.85.
Regarding `Oc1ccc(/C=C/c2cnc(Nc3cccc(N4CCNCC4)c3)s2)cc1` [Compound XIV, 4-{2-[2-(3-Piperazin-1-yl-phenylamino)-thiazol-5-yl]-vinyl}-phenol], the pIC50 on Abl (T315I) (setting [2]) is 7.29; at Abl kinase (setting [1]), 7.62.
As for `COc1cccc(/C=C/c2cnc(Nc3cc(N4CCNCC4)nc(C)n3)s2)c1` [Compound XXI, (E)-5-(3-Methoxystyryl)-N-(2-methyl-6-(piperazin-1-yl)pyrimidin-4-yl)thiazol-2-amine hydrochloride], the pIC50 against Abl (T315I) was 6.22; on Abl kinase, 6.65.
On to `Cc1nc(Nc2ncc(/C=C/c3ccc4[nH]ccc4c3)s2)cc(N2CCNCC2)n1` [Compound XV, {5-[2-(1H-Indol-5-yl)-vinyl]-thiazol-2-yl}-(2-methyl-6-piperazin-1-yl-pyrimidin-4-yl)-amine], for which the pIC50 at Abl (T315I) (setting [2]) was 6.46; on Abl kinase (setting [1]), 7.27.
The like results for `Oc1cccc(/C=C/c2cnc(Nc3cc(N4CCNCC4)ncn3)s2)c1` [Compound XVII, 3-{2-[2-(6-Piperazin-1-yl-pyrimidin-4-ylamino)-thiazol-5-yl]-vinyl}-phenol] were, in that order, 7.46 and 8.36.
Take `O=S(=O)(c1ccc(Nc2ncc(/C=C/c3ccc(O)cc3)s2)cc1)C1CCNCC1`: the negative logarithm of the IC50 (pIC50) at Abl (T315I) is 6.58; at Abl kinase it was 6.67.
With `CN(CCN1CCCC1)S(=O)(=O)c1cccc(Nc2ncc(/C=C/c3ccc(O)cc3)s2)c1` [Compound II, 3-{5-[2-(4-Hydroxy-phenyl)-vinyl]-thiazol-2-ylaminol}-N-methyl-N-(2-pyrrolidin-1-yl-ethyl)-benzenesulfonamide, Hydrochloride], the pIC50 was 6.08 at Abl (T315I) and 6.41 against Abl kinase.
Turning to `Cc1nc(Nc2ncc(/C=C/c3cccc(O)c3)s2)cc(N2CCCNCC2)n1` [Compound XVIII, 3-{2-[2-(6-[1,4]Diazepan-1-yl-2-methyl-pyrimidin-4-ylamino)-thiazol-5-yl]-vinyl}-phenol], the values for the pIC50 at Abl (T315I) (setting [2]) and at Abl kinase (setting [1]) were 7.51 and 8.57, respectively.
As to `Cc1nc(Nc2ncc(/C=C/c3cccc(O)c3)s2)cc(N2CCC(O)CC2)n1` [Compound VIII, trans-1-(6-{5-[2-(3-Hydroxy-phenyl)-vinyl]-thiazol-2-ylamino}-2-methyl-pyrimidin-4-yl)-piperidin-4-ol], the pIC50 is 6.68 at Abl (T315I) (setting [2]) and 7.62 at Abl kinase (setting [1]).
As to `Oc1ccc(/C=C/c2cnc(Nc3cccc(OCCN4CCCC4)c3)s2)cc1` [Compound XXII, 4-(2-{2-[3-(2-Pyrrolidin-1-yl-ethoxy)-phenylamino]-thiazol-5-yl}-vinyl)-phenol], the results for the pIC50 at Abl (T315I) and against Abl kinase were 6.57 and 6.79, respectively.
Take `O=C(Nc1ccc(/C=C/c2cnc(Nc3cccc(N4CCNCC4)c3)s2)cc1)c1cccc(C(F)(F)F)c1` [Compound XXIII, N-(4-{2-[2-(3-Piperazin-1-yl-phenylamino)-thiazol-5-yl]-vinyl}-phenyl)-3-trifluoromethyl-benzamide]: the pIC50 at Abl (T315I) (setting [2]) is 5.15; on Abl kinase (setting [1]) it was 6.51.
As to `Cc1nc(Nc2ncc(/C=C/c3ccc4nc(N)sc4c3)s2)cc(N2CCNCC2)n1` [Compound XIX, 6-[(E)-2-{2-[(2-Methyl-6-piperazin-1-ylpyrimidin-4-yl)amino]-1,3-thiazol-5-yl}vinyl]-1,3-benzothiazol-2-amine], the pIC50 was 6.95 against Abl (T315I) and 7.80 against Abl kinase.
For the compound `O=S(=O)(c1ccc(Nc2ncc(/C=C/c3cccc(O)c3)s2)cc1)N1CCNCC1` [Compound XI, 3-(-{2-[4-(Piperazine-1-sulfonyl)-phenylamino]-thiazol-5yl}-vinyl)-phenol], the pIC50 is 6.36 on Abl (T315I) (setting [2]) and 6.86 on Abl kinase (setting [1]).
In the same order, the values of `Cc1nc(Nc2ncc(/C=C\c3cccc(O)c3)s2)cc(N2CCC(O)CC2)n1` [Compound VII, cis-1-(6-{5-[2-(3-Hydroxy-phenyl)-vinyl]-thiazol-2-ylamino}-2-methyl-pyrimidin-4-yl)-piperidin-4-ol] are 6.57 and 7.54.
Turning to `OCCN1CCN(c2cccc(Nc3ncc(/C=C/c4ccc5[nH]ccc5c4)s3)c2)CC1` [Compound V, 2-(4-(3-(5-((E)-2-(1H-indol-5-yl)vinyl)thiazol-2-ylamino)phenyl)piperazin-1-yl)ethanol], the pIC50 at Abl (T315I) is 5.96; against Abl kinase, 6.76.
`Cc1nc(Nc2ncc(/C=C/c3ccc(Cl)c4[nH]ccc34)s2)cc(N2CCNCC2)n1` [4-{5-[2-(3-Hydroxy-phenyl)-vinyl]-pyrimidine-2-ylamino}-N-piperdin-4-yl-benzenesulfonamide]: the pIC50 at Abl (T315I) (setting [2]) was 7.30; on Abl kinase (setting [1]), 7.15.
In the case of `Cc1nc(Nc2ncc(/C=C/c3ccc4[nH]ncc4c3)s2)cc(N2CCNCC2)n1` [Compound XXIV, {5-[2-(1H-Indazol-5-yl)-vinyl]-thiazol-2-yl}-(2-methyl-6-piperazin-1-yl-pyrimidin-4-yl)-amine], the pIC50 on Abl (T315I) (setting [2]) is 6.46; at Abl kinase (setting [1]) it was 7.80.
